In experiment [1] the test system is SHR (spontaneously hypertensive rats). In words: Antihypertensive action in SHR. In kind it is in vivo. Conditions: conscious male SHR, hydrochlorides, 24 hours. Here is the method:
Male SHR (spontaneously hypertensive rats), 23 to 30 weeks old, were anesthesized with sodium pentobarbital 50 mg/kg intraperitoneal administration), and a polyethylene cannula was inserted through the left femoral artery into the abdominal aorta. The other end of the cannula was led out of the body and fixed at the back of the neck. One week after the operation, when the animal had recovered from the stress of the surgery, the other end of the cannula was connected to a blood pressure measuring device, which was constructed according to the directions of Laffan et al. [Laffan, P.J., Peterson A., Hitch S,W. and Jeunelot C., Cardiovascular Res. 6. 319-324 (1972)], but with slight modifications. The blood pressure and heart rate of the conscious and […] SHR were measured. After the blood pressure and the heart rate had stabilised for more than one hour, the test drug was administered by […]. After administration of the test sample, the blood pressure and the heart rate were measured every 15 minutes over a period of 24 hours. The maximum decrease in blood pressure and the half-time of the blood pressure lowering activity thus determined are shown in Table 6.
All of the test compounds were employed as the hydrochlorides.

Experiment [2] deals with T1, calcium channel (Cavia porcellus, UniProt O35505).
T1 construct: The taenia coli excised from a male guinea pig; from tissue; host or cells: guinea pig taenia coli (excised smooth muscle strip)
T1 sequence (O35505 whole entry): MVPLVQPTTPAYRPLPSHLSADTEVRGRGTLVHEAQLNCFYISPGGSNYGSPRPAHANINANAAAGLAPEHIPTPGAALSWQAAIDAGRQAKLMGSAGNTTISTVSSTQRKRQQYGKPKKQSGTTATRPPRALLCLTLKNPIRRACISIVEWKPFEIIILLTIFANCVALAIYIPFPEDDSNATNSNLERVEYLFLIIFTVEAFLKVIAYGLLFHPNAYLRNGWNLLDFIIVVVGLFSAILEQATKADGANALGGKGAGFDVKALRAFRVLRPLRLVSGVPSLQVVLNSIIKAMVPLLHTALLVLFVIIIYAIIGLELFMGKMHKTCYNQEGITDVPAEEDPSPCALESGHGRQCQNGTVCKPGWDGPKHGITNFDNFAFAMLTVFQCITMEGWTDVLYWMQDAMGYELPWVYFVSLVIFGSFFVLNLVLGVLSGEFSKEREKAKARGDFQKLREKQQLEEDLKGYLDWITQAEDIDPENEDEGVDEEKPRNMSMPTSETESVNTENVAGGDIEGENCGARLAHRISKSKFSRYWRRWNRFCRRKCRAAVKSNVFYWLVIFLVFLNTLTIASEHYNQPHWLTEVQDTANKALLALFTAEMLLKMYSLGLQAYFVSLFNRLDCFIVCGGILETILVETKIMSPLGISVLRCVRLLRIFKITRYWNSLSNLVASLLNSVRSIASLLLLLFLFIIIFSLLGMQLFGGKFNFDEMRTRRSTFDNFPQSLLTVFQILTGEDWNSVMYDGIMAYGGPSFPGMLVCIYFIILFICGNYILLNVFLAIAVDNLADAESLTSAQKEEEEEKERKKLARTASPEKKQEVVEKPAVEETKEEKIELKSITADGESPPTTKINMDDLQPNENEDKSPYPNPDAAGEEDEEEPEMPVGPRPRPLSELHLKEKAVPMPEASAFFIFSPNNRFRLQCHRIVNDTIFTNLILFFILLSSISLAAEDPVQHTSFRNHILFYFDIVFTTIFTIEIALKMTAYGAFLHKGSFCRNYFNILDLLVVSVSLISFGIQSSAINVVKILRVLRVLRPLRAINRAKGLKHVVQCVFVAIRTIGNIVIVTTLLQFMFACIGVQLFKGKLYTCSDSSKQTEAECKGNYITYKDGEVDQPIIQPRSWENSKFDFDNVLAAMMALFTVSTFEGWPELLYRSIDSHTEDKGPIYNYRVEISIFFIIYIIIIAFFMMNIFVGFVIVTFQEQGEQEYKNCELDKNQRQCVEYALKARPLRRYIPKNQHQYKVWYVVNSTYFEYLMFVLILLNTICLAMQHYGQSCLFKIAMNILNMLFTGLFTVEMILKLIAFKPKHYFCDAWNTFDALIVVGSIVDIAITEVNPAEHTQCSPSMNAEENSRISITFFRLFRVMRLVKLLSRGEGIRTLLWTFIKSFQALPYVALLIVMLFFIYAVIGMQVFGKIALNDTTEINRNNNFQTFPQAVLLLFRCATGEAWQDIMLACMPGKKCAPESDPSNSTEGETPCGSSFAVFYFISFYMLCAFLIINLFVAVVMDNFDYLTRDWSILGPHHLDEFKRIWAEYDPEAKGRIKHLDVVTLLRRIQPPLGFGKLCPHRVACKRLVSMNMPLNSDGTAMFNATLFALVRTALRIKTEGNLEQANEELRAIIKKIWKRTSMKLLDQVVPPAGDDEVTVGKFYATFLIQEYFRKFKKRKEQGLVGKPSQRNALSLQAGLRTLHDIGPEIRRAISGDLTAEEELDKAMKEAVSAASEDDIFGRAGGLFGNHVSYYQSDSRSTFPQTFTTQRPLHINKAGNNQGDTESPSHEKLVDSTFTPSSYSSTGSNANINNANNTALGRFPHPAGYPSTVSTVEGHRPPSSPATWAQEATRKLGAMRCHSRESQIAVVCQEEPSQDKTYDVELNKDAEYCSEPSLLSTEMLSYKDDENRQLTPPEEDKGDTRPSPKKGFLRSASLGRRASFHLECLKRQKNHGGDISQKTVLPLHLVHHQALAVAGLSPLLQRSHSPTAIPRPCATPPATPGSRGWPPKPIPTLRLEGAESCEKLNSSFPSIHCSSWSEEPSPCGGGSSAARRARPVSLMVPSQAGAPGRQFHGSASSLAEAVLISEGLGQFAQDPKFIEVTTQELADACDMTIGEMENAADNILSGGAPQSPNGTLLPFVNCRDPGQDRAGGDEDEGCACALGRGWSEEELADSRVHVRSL
In words: Calcium channel blocking action (calcium-induced contraction of excised taenia coli). Conditions: 0.5 h, test compound 10^-8 g/ml, 30 minutes incubation, guinea pig taenia coli, hydrochlorides (Example 34: fumarate). Here is the method: The taenia coli excised from a male guinea pig weighing from 250 to 300 g was cut into a length of 6 to 7 mm and suspended in an organ bath filled with Tylord's solution (sodium chloride 97 mM, potassium chloride 40 mM, sodium hydrogen carbonate 11.9 mM, disodium hydrogen phosphate 0.4 mM, glucose 5.5 mM; pH 7.1). The bath solution contained no calcium ions and was aerated with a mixture of 95% oxygen and 5% carbon dioxide by volume. To this solution were added 10 and 30 mM solutions of calcium chloride at 30 minute intervals to obtain a final concentration of 0.4 mM. The tension which developed 1n the taenia coli was measured by an isometric transducer. The organ bath was then washed twice or more with Tylord's solution containing no calcium ions after which it was allowed to equilibrate for 30 minutes. After the muscle had stabilised, test compound dissolved in physiological saline was added to the bath to a final concentration of 10^-8 g/ml, and the bath was incubated for 30 minutes. 30 and 100 mM solutions of calcium chloride were again added to the bath, and the developed tension was measured. From the magnitude of the calcium-induced contraction before and after the test drug had been added the inhibitory rate was calculated using the following formula: [formula] where: Co=contraction induced by calcium ion before a test drug was added: and
Ct=contraction induced by calcium ion after the test drug had been added.
In addition to the compounds of the invention, we also carried out the same test with the following compounds of the prior art: (±)-diltiazem, […], (±)-8-chlorodiltiazem (8-Cl-diltiazem). (±)-8-methoxydiltiazem (8-MeO-diltiazem) and (±)-8-benzyloxydiltiazem (8-BzO-diltiazem).
In the Table, the compounds of the invention are identified by the number of the one of the foregoing Examples in which the compound was prepared. The prior art compounds are identified by the abbreviated generic names shown above in parentheses.
All of the compounds except for that of Example 34 were employed as the hydrochlorides; that of Example 34 was employed as the fumarate.

The mark [3] stands for this setting: Rattus norvegicus, po, Dose 30 mg/kg, read-out: Maximum hypotension (%).
[4] abbreviates: Rattus norvegicus, po, Dose 10 mg/kg, read-out: Maximum hypotension (%).

18 compounds from patent US5002942A, “1,5-benzothiazepine derivatives, their preparation and their use in the treatment of cardiovascular disorders” (Sankyo Company, Limited, priority 1988, dated 1991) can be followed below.

Broadly, the inhibition is the percentage by which the read-out fell short of the control.

Regarding `COc1ccc([C@@H]2Sc3cc(OCc4ccccc4)ccc3N(CCN(C)C)C(=O)[C@@H]2OC(C)=O)cc1` (racemic) [(±)-8-BzO-diltiazem, cis-3-acetoxy-8-benzyloxy-2,3-dihydro-5-(2-dimethylaminoethyl)-2-(4-methoxyphenyl)-1,5-benzothiazepin-4(5H)-one, reference compound], the “Half-time of hypotension action” value in experiment [1] (Dose 30 mg/kg) worked out at 7.7 h. Moreover, the change in vivo at 30 mg/kg in experiment [1] (setting [3]) was -19%. Besides, the inhibition at 0.01 µg/mL in experiment [2] turned out to be 55%.
The corresponding values for `COc1ccc([C@@H]2Sc3cc(Oc4ccccc4)ccc3N(CCN(C)C)C(=O)[C@@H]2OC(C)=O)cc1` (racemic) [Example 2, (±)-Cis-3-acetoxy-5-(2-dimethylaminoethyl)-2,3-dihydro-2-(4-methoxyphenyl)-8-phenoxy-1,5-benzothiazepin-4(5H)-one] are 13.9 h, -34% and 58%.
For the compound `COc1ccc([C@@H]2Sc3cc(Oc4ccccc4)ccc3N(CCN(C)C)C(=O)[C@@H]2OC(C)=O)cc1F` (racemic) [Example 4, (±)-Cis-3-acetoxy-5-(2-dimethylaminoethyl)-2-(3-fluoro-4-methoxyphenyl)-2,3-dihydro-8-phenoxy-1,5-benzothiazepin-4(5H)-one], the “Half-time of hypotension action” value in experiment [1] (Dose 30 mg/kg) is 16.0 h. Also, the change in vivo at 30 mg/kg in experiment [1] (setting [3]) was -36%. The inhibition at 0.01 µg/mL in experiment [2] was 84%.
As to `COc1ccc([C@@H]2Sc3cc(Oc4ccc(F)cc4)ccc3N(CCN(C)C)C(=O)[C@@H]2OC(C)=O)cc1` (racemic) [Example 22, (±)-cis-3-Acetoxy-5-(2-dimethylaminoethyl)-8-(4-fluoro-phenoxy)-2,3-dihydro-2-(4-methoxyphenyl)-1,5-benzothiazepin-4(5H)-one], the inhibition at 0.01 µg/mL in experiment [2] was 52%.
Still for that read-out and setting: for `COc1ccc([C@@H]2Sc3cc(Oc4ccc(F)cc4)ccc3N(CCN(C)C)C(=O)[C@@H]2OC(C)=O)cc1F` (racemic) [Example 24, (±)-cis-3-Acetoxy-5-(2-dimethylaminoethyl)-2-(3-fluoro-4-methoxyphenyl)-8-(4-fluorophenoxy)-2,3-dihydro-1,5-benzothiazepin-4(5H)-one] the value was 93%.
Turning to `COc1ccc([C@@H]2Sc3cc(Cl)ccc3N(CCN(C)C)C(=O)[C@@H]2OC(C)=O)cc1` (relative stereo) [(±)-8-Cl-diltiazem, cis-3-acetoxy-8-chloro-2,3-dihydro-5-(2-dimethylaminoethyl)-2-(4-methoxyphenyl)-1,5-benzothiazepin-4(5E,uns/H/ )-one, reference compound], the “Half-time of hypotension action” value in experiment [1] (Dose 30 mg/kg) turned out to be 6.1 h. The change in vivo at 30 mg/kg in experiment [1] (setting [3]) is -32%. For the same compound, the inhibition at 0.01 µg/mL in experiment [2] was 56%.
The corresponding values for `COc1ccc([C@@H]2Sc3cc(OC)ccc3N(CCN(C)C)C(=O)[C@@H]2OC(C)=O)cc1` (relative stereo) [(±)-8-MeO-diltiazem, cis-3-acetoxy-8-methoxy-2,3-dihydro-5-(2-dimethylaminoethyl)-2-(4-methoxyphenyl)-1,5-benzotbiazepin-4(5E,uns/H/ )-one, reference compound] are 5.8 h, -35% and 67%.
For `COc1ccc([C@@H]2Sc3ccccc3N(CCN(C)C)C(=O)[C@@H]2OC(C)=O)cc1` (relative stereo) [(±)-diltiazem, reference compound], in experiment [1] (Dose 30 mg/kg), the “Half-time of hypotension action” value turned out to be 3.8 h. For the same compound, in experiment [1] (setting [3]), the change in vivo at 30 mg/kg is -17%. Besides, the inhibition at 0.01 µg/mL in experiment [2] came out at 11%.
For the compound `CC(=O)O[C@H]1C(=O)N(CCN(C)C)c2ccc(Oc3ccccc3)cc2S[C@H]1c1ccc2c(c1)OCO2` (relative stereo) [Example 6, (±)-Cis-3-acetoxy-5-(2-dimethylaminoethyl)-2,3-dihydro-2-(3,4-methylenedioxyphenyl)-8-phenoxy-1,5-benzothiazepin-(5H)-one], in experiment [2], the inhibition at 0.01 µg/mL came out at 53%.
Same read-out and setting: for `COc1ccc(Oc2ccc3c(c2)S[C@@H](c2ccc(OC)cc2)[C@@H](OC(C)=O)C(=O)N3CCN(C)C)cc1` (relative stereo) [Example 28, (±)-cis-3-Acetoxy-5-(2-dimethylaminoethyl)-2,3-dihydro-8-(4-methoxyphenoxy)-2-(4-methoxyphenyl)-1,5-benzothlazepin-4-(5H)-one] the value was 59%.
The same measure, in the same setting: under `COc1ccc([C@@H]2Sc3cc(Oc4ccc(Cl)cc4)ccc3N(CCN(C)C)C(=O)[C@@H]2OC(C)=O)cc1` (relative stereo) [Example 30, (±)-cis-3-Acetoxy-8-(4-chlorophenoxy)-2,3-dihydro-5-(2-dimethylaminoethyl)-2-(4-methoxyphenyl)-1,5-benzothiazepin-4-(5H)-one] stands 56%.
For `COc1ccc([C@@H]2Sc3ccccc3N(CCN(C)C)C(=O)[C@@H]2OC(C)=O)cc1` [(+)-diltiazem, (2, 3S)-cis-3-acetoxy-2,3-dihydro-5-(2-dimethylaminoethyl)-2-(4-methoxyphenyl)-1,5-benzothiazepin-4(5H)-one, reference compound], the “Half-time of hypotension action” value in experiment [1] (Dose 10 mg/kg) was 3.3 h. Further, the change in vivo at 10 mg/kg in experiment [1] (setting [4]) was -15%. In addition, the inhibition at 0.01 µg/mL in experiment [2] came out at 20%.
With `COc1ccc([C@@H]2Sc3cc(Oc4ccccc4)ccc3N(CCN(C)C)C(=O)[C@@H]2OC(C)=O)cc1` [Example 12, (2S, 3S)-3-Acetoxy-5-(2-dimethylaminoethyl)-2,3-dihydro-2-(4-methoxyphenyl1}-8-phenoxy-1,5-benzothiazepin-4(5H)-one], the “Half-time of hypotension action” value in experiment [1] (Dose 5 mg/kg) came to 11.8 h. Moreover, the change in vivo at 5 mg/kg in experiment [1] (Rattus norvegicus, po, Dose 5 mg/kg, read-out: Maximum hypotension (%)) was -38%. Moreover, in experiment [2], the inhibition at 0.01 µg/mL stood at 86%.
Regarding `COc1ccc([C@@H]2Sc3cc(Oc4ccc(F)cc4)ccc3N(CCN(C)C)C(=O)[C@@H]2OC(C)=O)cc1` [Example 14, (2S, 3S)-3-Acetoxy-5-(2-dimethylaminoethyl)-8-(4-fluoro-phenoxy)-2,3-dihydro-2-(4-methoxyphenyl)-1,5-benzothiazpin-4(5H)-one], the “Half-time of hypotension action” value in experiment [1] (Dose 10 mg/kg) is 12.7 h. The change in vivo at 10 mg/kg in experiment [1] (setting [4]) is -37%. In addition, the inhibition at 0.01 µg/mL in experiment [2] worked out at 94%.
Turning to `COc1ccc([C@@H]2Sc3cc(Oc4ccccc4)ccc3N(CCN(C)C)C(=O)[C@@H]2OC(C)=O)cc1F` [Example 16, (2S, 3S)-3-Acetoxy-5-(2-dimethylaminoethyl)-2-(3-fluoro-4-methoxyphenvl)-2,3-dihydro-8-phenoxy-1,5-benzothiazepin-4(5H)-one], the “Half-time of hypotension action” value in experiment [1] (Dose 3 mg/kg) was found to be 9.4 h. Further, the change in vivo at 3 mg/kg in experiment [1] (Rattus norvegicus, po, Dose 3 mg/kg, read-out: Maximum hypotension (%)) is -21%. In addition, the inhibition at 0.01 µg/mL in experiment [2] came out at 80%.
For the compound `COc1ccc([C@@H]2Sc3cc(Cc4ccccc4)ccc3N(CCN(C)C)C(=O)[C@@H]2OC(C)=O)cc1` [Example 18], the “Half-time of hypotension action” value in experiment [1] (Dose 10 mg/kg) was determined as 13.8 h. The change in vivo at 10 mg/kg in experiment [1] (setting [4]) is -32%. In addition, in experiment [2], the inhibition at 0.01 µg/mL stood at 77%.
In the case of `COc1ccc([C@@H]2Sc3cc(Cc4cccs4)ccc3N(CCN(C)C)C(=O)[C@@H]2OC(C)=O)cc1` [Example 20, (2S, 3S)-3-Acetoxy-5-(2-dimethylaminoethyl)-2,3-dihydro-2-(4-Methoxyphenyl)-8-(2-thienylmethyl)-1,5-benzothiazepin-4(5H)-one], in experiment [1] (Dose 10 mg/kg), the “Half-time of hypotension action” value came out at 8.5 h. In addition, in experiment [1] (setting [4]), the change in vivo at 10 mg/kg is -24%. Besides, the inhibition at 0.01 µg/mL in experiment [2] is 57%.
Regarding `COc1ccc([C@@H]2Sc3cc(Oc4ccc5c(c4)OCO5)ccc3N(CCN(C)C)C(=O)[C@@H]2OC(C)=O)cc1` [Example 34, (2S, 3S)-3-Acetoxy-5-(2-dimethylaminoethyl)-2,3-dihydro-2-(4-methoxyphenyl)-8-(3,4-methylenedioxyphenoxy)-1,5-benzothiazepin-4(5H)-one], in experiment [2], the inhibition at 0.01 µg/mL turned out to be 88%.
